Measured values reported in a melting point compilation (Tetko et al.; mined from patent text by program, amines drawn as free bases though some values may be those of a salt).

Row | melting point [°C] | SMILES
1 | 75 to 77 | Cc1cc(-c2cc(O)c(SCCc3ccccc3)c(=O)o2)ccc1OCc1ccccn1
2 | 176 to 177 | CCOC(=O)c1cc(NCc2ccccc2)c(NC2CCCCC2)c(S(N)(=O)=O)c1
3 | 53 to 55 | C=CCOC(=O)CC(=O)CCN1C(=O)c2ccccc2C1=O
4 | 65 to 67 | CCCCCCCCCCCCCCC(=O)C(=O)N[C@@H](CCCC)C(=O)NCC(=O)OC
5 | 192 to 195 | COc1ccc(C(=O)c2oc3cccc(O)c3c2C)cc1
6 | 260 to 263 | Cc1[nH]c(=O)[nH]c1C(=O)c1ccc(N2CCCCC2)cc1
7 | 257 to 259 | O=C(O)CN[C@H]1CCN(c2ccc3c(NC(=O)CC4CCCCC4)c(Cl)ccc3n2)C1
8 | 218 to 220 | O=C(Nc1ccc(C(=O)O)cc1)OCc1cn(-c2cc3cc(C(=O)O)c(=O)[nH]c3cc2C(F)(F)F)cn1
9 | 127 to 130 | CN(CCCO)c1ccnc(CSc2nc3ccccc3[nH]2)c1Cl
10 | 101 | COCCOc1ccc(CCC(=O)N(CCOC)S(N)(=O)=O)c(Oc2ncc(C(F)(F)F)cc2Cl)c1
11 | 192 to 193 | CN1CCN(c2ccccc2C=CC(=O)Nc2ccc(Cl)c(Cl)c2)CC1
12 | 149 to 150 | CCOC(=O)c1ccc(NC(=O)OC(C)(C)C)cc1
13 | 80 to 82 | Oc1ccc(OCc2ccccc2)c(F)c1
14 | 175 | Cc1cc(Cc2cc(C(C)(C)C)cc(-n3nc4ccccc4n3)c2O)c(O)c(C(C)(C)C)c1
15 | 174 | OCCC1Cc2ccccc2CN1C(=S)Nc1cccnc1 (racemic)
16 | 180 | COc1ccc2c(C(=O)O)cccc2c1
17 | 198 | O=c1c(CO)cnc2c3ccccc3ccn12
18 | 224 to 225 | ON=C(c1ccccc1)c1ccc(C(=NO)c2ccc(C(=NO)c3ccccc3)cc2)cc1
19 | 212 to 216 | CN(C)c1ccc2c(c1)Sc1cc(N(C)C)ccc1N2C(=O)c1cc(C(C)(C)C)c(O)c(C(C)(C)C)c1
20 | 201 | C[C@@H](n1cnc2cc(N(C)C)ccc2c1=O)[C@](O)(Cn1cncn1)c1ccc(F)cc1F
21 | 250 | CCCC(=O)Nc1n[nH]c2cc(-c3ccc([N+](=O)[O-])cc3)ccc12
22 | 72.5 | CCC(=O)Oc1cc(OC)cc(OC)c1C(=O)C=Cc1ccc(C)o1
23 | 125 to 127 | CSC(=O)N1c2ccccc2C(=O)N(C(C)C)S1(=O)=O
24 | 205 to 207 | NC(=O)c1cccc2nccc(O)c12
25 | 125 to 126 | CN1C=NC(Cc2ccccc2)(Cc2ccccc2)C1=O
26 | 95 to 100 | O=CCOc1ccc(CCC(=O)O)cc1

Row | melting point [°C] | SMILES
27 | 125 | CCCn1c(C)nn(-c2ccc([N+](=O)[O-])cc2)c1=O
28 | 51 | Cn1nc(-c2ccc(F)cc2F)cc1C(F)(F)F
29 | 116 to 117 | COc1c(C)c(CO)c(OC)c2ccccc12
30 | 105 | CC(C)(C)OC(=O)CCS(=O)(=O)c1ccc(Br)cc1
31 | 145 to 146 | CC(=O)NC1(c2ccc(CN3CCN(c4ncccn4)CC3)cc2)CC1
32 | 138 to 140 | CC(NC(=S)Nc1ccc(NCCN)nc1)C(C)(C)C (stereo unspecified)
33 | 297 to 300 | Cc1nc(NC(=O)NC(C)(C)C)ccc1-c1ccncc1
34 | 135 to 137 | COc1ccc(N2CCN(c3c(C)c(C)c4c(c3C)CC(C)(C)O4)CC2)cc1OC
35 | 145 to 150 | NC(=CC(=O)c1ccccn1)C1CC1
36 | 153 to 155 | CC(C)c1cc(C(C)C)c(CC(=O)NS(=O)(=O)Oc2c(C(C)C)cc(N)cc2C(C)C)c(C(C)C)c1
37 | 138 to 140 | COc1cccc(C2(COc3cccc4cc(NS(=O)(=O)C(F)(F)F)ccc34)N=CNO2)c1 (stereo unspecified)
38 | 65 to 67 | c1cc(OCC2CO2)c2nsnc2c1 (stereo unspecified)
39 | 106 | O=C(O)CCN(C(=O)Cl)c1cccc(Cl)c1
40 | 88 to 92 | CCCC(CO)(CCC)N(OC(C)c1ccccc1)C(C)(C)CO (stereo unspecified)
41 | 190 to 193 | Cc1cc2c(s1)Nc1ccccc1N=C2N1CCN(C)CC1
42 | 123 to 125 | CSC(Oc1cc(C)c(Br)c(C)c1)C(=O)NC(C)(C)C (stereo unspecified)
43 | 258 to 260 | O=C(O)COc1ccc2cc(-c3cnc(Cc4ccc5ccccc5c4)o3)ccc2c1
44 | 246 to 253 | COC(=O)Nc1nc2ccc(Oc3ccccn3)cc2[nH]1
45 | 200 to 207 | O=[N+]([O-])c1ccc2c([N+](=O)[O-])c(O)c(O)cc2c1
46 | > 300 | Cc1ccc(-n2c(=O)c(O)nc3cccnc32)cc1
47 | 146 to 151 | CC1(NC(=O)C(F)(F)F)CN(c2cc3c(cc2F)c(=O)c(C(=O)O)cn3-c2ccc(F)cc2)C1
48 | 150 to 152 | CN(C(=O)c1ccc(Cn2cnc3ccccc32)cc1)[C@@H]1CCNC1
49 | 196 to 198 | Nc1nc2ccccc2c2c1ncn2CCOCc1ccccn1
50 | 197 to 199 | Cc1ccc(N2Cc3ccccc3P2(=O)c2ccccc2)cc1 (stereo unspecified)
51 | 295 to 302 | COCCn1cc2c(=O)[nH]c(=O)[nH]c2n1
52 | 164 | CCOC(=O)c1cc(C#N)c(N)cc1OC

Row | melting point [°C] | SMILES
53 | 144 to 146 | CCOC(=O)C(C(=O)OCC)C1c2ccccc2C(F)(F)C(F)(F)c2ccccc21
54 | 72 to 74 | CSCCC(=O)Nc1sc(-c2cccnc2)nc1SC
55 | 140 to 141 | CCOC(=O)C(=O)Nc1cc(C#N)c(C#N)cc1[N+](=O)[O-]
56 | 105 to 107 | CSc1nccc(CC(=O)c2ccc(Cl)cc2Cl)n1
57 | 97 to 100 | CCc1cc(-c2ccc(-c3ccnn3C)cc2)ccc1OC
58 | 209 to 210 | NS(=O)(=O)c1cnc(-c2ccccc2)s1
59 | 183 to 185 | Cc1noc(-c2cc(-c3ccccc3)c(=O)n3c2-c2sccc2SCC3)n1
60 | 105 to 107 | CC(C)Oc1cc(-n2c(=O)c3c(n(C)c2=O)CCC3)c(F)cc1Cl
61 | 94 to 94.5 | CCN(CC)C(=O)COc1ccc(CCCOC(=O)NCC2CC2)c(Oc2ncc(C(F)(F)F)cc2Cl)c1
62 | 168 to 171 | O=C1C(c2ccccc2)c2cccc3c2N1CCN3 (stereo unspecified)
63 | 143 to 144 | COc1cc(-c2nc(N)sc2CSC2CCCCC2)c(OC)cc1C
64 | 155 to 159 | O=[N+]([O-])c1ccc(CCN2CCN(C3CCc4ccccc4C3O)CC2)cc1 (stereo unspecified)
65 | 156 | O=C1CC(CI)C(=O)N1c1ccc(F)cc1 (stereo unspecified)
66 | 120 to 121 | COc1ccc(CN2CC=C(/C=C/c3ccc(C#N)cc3)CC2)cc1
67 | 218 | CC(=O)Nc1ccc(NC(=O)CCl)c(O)c1
68 | 134 to 136 | CC(C)(C)c1cc(CCc2ccccc2NC(=O)NCCc2ccc([N+](=O)[O-])cc2)cc(C(C)(C)C)c1O
69 | 144 to 146 | CC(C)Oc1cncc(Br)c1
70 | 160 to 162 | COCNC(=O)NC1CCCc2sccc21 (stereo unspecified)
71 | 214 to 215 | Cc1nc(N)c([N+](=O)[O-])cc1Cl
72 | 197 to 198 | c1cc(-c2cncnc2)cc(-n2cnc3cc(-n4cccc4)ccc32)c1
73 | 232 to 233 | O=c1c2c(cc3n1CCCS3(=O)=O)CCCC2
74 | 193 | CC(C)Oc1ccccc1C1(N)C(=O)Nc2ccc(Cl)cc21 (stereo unspecified)
75 | 141 | COC1(c2cc(F)cc(Sc3ccc(C(C)=O)cc3)c2)CCOCC1
76 | 117 to 118 | CC(C(=O)O)c1ccc2c(c1)C(=O)CC(C(C)(C)C)O2 (stereo unspecified)
77 | 166 | COC(=O)c1c(Sc2ccc(OC)cc2)nc(C(=O)c2ccccc2)n1Cc1cc2c(cc1Cl)OCO2
78 | 125 to 129 | SCC1=NC2CCCCC2N1 (stereo unspecified)

Row | melting point [°C] | SMILES
79 | 91 to 93 | COC(=O)Cn1c(C(=O)OCc2ccccc2)cc2cc(C)cc(C)c21
80 | 137 to 139 | CCCCN1N=C(c2ccc3c(c2)C(C)(C)CC(=O)N3C)C(C)CC1=O (stereo unspecified)
81 | 105 | Cc1ccc(CN(O)C(N)=O)o1
82 | 50 to 60 | COc1ncc(C)nc1NS(=O)(=O)c1cccc(Cl)c1Cl
83 | 56 to 59 | COc1c(Cc2ccccc2)ccc2ccccc12
84 | 82 to 83 | CC(C)(Cl)C(=O)c1ccc(C(=O)c2ccc(C(=O)C(C)(C)Cl)cc2)cc1
85 | 95.4 | O=C(c1ccc(Oc2ccc(F)cc2)nc1)N1CCCNCC1
86 | 129 to 132 | O=C(O)CCC1CC(O)C(=O)N1 (stereo unspecified)
87 | 202 to 203 | Cc1cccc2nn(-c3cc(O)ccc3O)nc12
88 | 167 to 172 | O=C(C1CCCCC1)N1CCN2C(=O)c3ccccc3C2C1=O (stereo unspecified)
89 | 50 to 52 | CCCCCCC/C=C\CCCCCCCC(O)CCCNC(C)=O (stereo unspecified)
90 | 60 to 63 | COc1cc(C(=O)Cl)ccc1OCCCCl
91 | 140 to 142 | CCC(NS(=O)(=O)c1ccc(Cl)cc1)c1ccccc1 (stereo unspecified)
92 | 174 | O=S(=O)(c1cccs1)N(CC1CC1)c1cccc2cc(-c3ncc(CO)s3)[nH]c12
93 | 202 to 204 | CCCc1nc2c(N)nc3ccccc3c2n1CCCCS(C)(=O)=O
94 | 113 to 115 | CCc1c(O)c(=O)ccn1CCOC(=O)C(C)(C)C
95 | 149 to 151 | COc1ccc(Cn2c3c(c4cc(F)cc(F)c42)CCCC3CC(=O)O)cc1 (stereo unspecified)
96 | 209 to 210 | CC1(c2nn(-c3c(Cl)cc(C(F)(F)F)cc3Cl)c(N)c2C#N)CC1(Cl)Cl (stereo unspecified)
97 | 114 to 116 | COc1ccc(CCN2CCC(C(=O)c3csc4ccccc34)CC2)cc1
98 | 272 to 274 | O=C(Nc1ccccn1)c1cnc2c(c1O)CN(C(=O)OCc1ccccc1)CC2
99 | 124 to 125 | CCC(C)(CC)CC(=O)C(OC(=C1C(=O)N(C(N)=O)c2cc(Cl)c(F)cc21)c1cccs1)C(=O)O (stereo unspecified)
100 | 208 | COc1ccc(C=C2CCN(C(=O)c3nc4ccc(O)cc4[nH]3)CC2)cc1
101 | 210 to 212 | O=C(NC(Cc1ccccc1[N+](=O)[O-])c1ccccc1)C1CCCCC1 (stereo unspecified)
102 | 104 | CC(=O)N(C)C(CCl)C(=O)O (stereo unspecified)
103 | 169 to 171 | CCC1c2ccc(F)n2-c2ccc(F)cc2N1S(=O)(=O)c1ccc(O)cc1 (stereo unspecified)

Row | SMILES | melting point [°C]
104 | ON=C(Cl)c1ccccc1 | 50 to 51
105 | Cc1c(Cl)c(=O)n2c3c(cc(C(O)(C(F)(F)F)C(F)(F)F)cc13)CCC2 | 266 to 268
106 | O=C1c2c(Br)cccc2-n2cnc(-c3noc(CCl)n3)c2[C@@H]2CCN12 | 210 to 211
